# Key:
# [1] = tested on: dechlorinating bacteria known to convert PCE to ethene; assay: Set A: Ladder of YM, PCE dechlorination microcosms (kinetics, Relative Rate, paired t-test); format: cell-based, Dehalococcoides and Dehalobacter spp.
# Excerpt: Certain contaminated materials (or sites) may contain indigenous microbial communities that are sufficient for complete bioremediation of contaminants. For such sites, there is no need to add microbes unless the indigenous microbes are genetically deficient in achieving the desired clean-up goals. For those sites that are microbiologically limited, microorganisms may be added to the contaminated materials (or sites). In one embodiment, the inoculum may be a mixed culture of halo-respiring bacteria that have been enriched to reach an optimal cell density. These mixed cultures of halo-respiring bacteria may be typically obtained from sediment samples from rivers, streams or any waterways. More specifically, the inoculum used in the Examples was originated from a Sangamon River sediment sample (Lodge Park, Piatt County, Ill.) See, e.g., Brennan, R. A., Sanford, R. A. and Werth, C. J. (2006). “Biodegradation of Tetrachloroethene by Chitin Fermentation Products in a Continuous Flow Column System.” Journal of Environ. Engr., June 665-673. This culture had grown for several years on PCE, anaerobic basal salts medium, Wolfe's vitamin solution and various electron donors including lactate (1-2 millimolar (mM)), formate (4 mM) and chitin using the Volatile Interface Transfer Apparatus (VITA) reactor system at the University of Illinois. Brennan, R. A., and Sanford, R. A. (2002). “Continuous steady-state method using Tenax for delivering tetrachloroethene to chlororespiring bacteria.” Appl. Environ. Microbiol., 68(3), 1464-1467. […] Using 16S rRNA gene-specific primers, both Dehalococcoides and Dehalobacter spp. were detected. Quantitative real-time PCR has been used to determine that approximately 1.65×10^7 Dehalococcoides gene copies were present per ml of culture.
# For purpose of this disclosure, each bottle may be started with a certain amount of PCE. At subsequent times each bottle may be sampled for the degradation daughter products of PCE, namely trichloroethene (TCE), cis-dichloroethene (DCE), vinyl chloride (VC) and ethene, etc. Trans-DCE and 1,1-DCE are also daughter products of PCE, but they may not be detectable under the conditions disclosed here.
# The rate of degradation may be determined by calculating the number of pmoles of chloride ions removed from PCE and subsequently from the amounts of the daughter products generated. The calculation may be performed as follows: Chloride (μmoles)=[…]−4×PCE (μmoles)−3×TCE (pmoles)−2×DCE (μmoles)−VC (μmoles)
# The alternative chloride calculation is: Chloride (μmoles)=TCE (μmoles)+2×DCE (μmoles)+3×VC (μmoles)+4×Ethene (μmoles)
# Next, the dechlorination rate may be determined for each bottle at each time by dividing the Chloride generated by the time (days). The data may be then normalized to the lactate control by taking the ratio of Chloride Rate (pmoles/day) and the Lactate Control Chloride Rate (pmoles/day). This ratio is called Relative Rate and is dimensionless.
# As shown in the Examples, a paired t-test has been conducted to calculate the probability that the Relative Rate of one group (i.e. with Nutrient) is greater than the other group (i.e. without Nutrient). The null hypothesis is that the underlying means of the two paired groups are equal. The Probability that one group has higher Relative Rates than the other group is shown in various tables in the Examples.
# The following components were used in the system for bioremediating contaminated ground water microcosms in Examples 2-8: • 160 milliliter (ml) stoppered serum bottles • 100 ml of anaerobic culture medium, groundwater containing an excess of bioavailable phosphorus and nitrogen at 0.5 mM Phosphate and 1 mM ammonium degassed with a nitrogen sparge • Nominally 1 gram of limestone • 19.54 micromoles (pmoles) Perchloroethene (PCE) • An excess of various electron donors were utilized • 3 ml of inoculum containing dechlorinating bacteria known to convert PCE to ethene. […]
# [2] = tested on: dechlorinating bacteria known to convert PCE to ethene; assay: Set G: Efficiency by VFA Analysis; format: cell-based, Dehalococcoides and Dehalobacter spp.
# Excerpt: Sets B, C, D, E, and G further contain figures and tables showing results of the characterization of the Efficiency and the Relative Efficiency of electron donor usage. Efficiency may be defined as the percent of electron donor utilized for dechlorination, and may be calculated by dividing the pmoles of Chloride ion generated by the pmoles of electron donor consumed as measured by either Volatile Fatty Acid (VFA) analysis (Sets B, C, and G) or Chemical Oxygen Demand (COD) analysis (Set D and E). The Relative Efficiency of the electron donor utilization may be defined as the Efficiency of the Electron Donor divided by the Efficiency of the Lactate Control.
# The method used to calculate the consumption of the electron donor measured the propionate, acetate and formate levels to calculate the consumption of electron donor over time. The lactate and propionate fermented very rapidly resulting in acetate and formate as the only measurable VFAs.
# Set G contained microcosms that tested two different Yeast Metabolites (YM3 and YM4) and a Polysaccharide (PS1) for kinetics and efficiency of electron donor utilization using lactate and molasses as the electron donors. PS1 was also tested as an electron donor by itself.
# Lactate at 11.2 mM (1,000 mg/L) and nutrient amendment at 1% of the electron donor levels (˜10 mg/L). Triplicate bottles received 2 micro liters of PCE and 2 ml of inoculum. The bottles were sampled 5 times over a 138 day period.
smiles,measurement,setting,value
"CC(O)C(=O)[O-].[Na+] (centres unmarked) [Lactate Control, sodium lactate]",Average Relative Rate,[1],1.00
same,Cl^− Rate ± s.d.,[1]; 0 days,0.00 ± 0.00 µmol
same,Cl^− ± s.d.,[1]; 0 days,0.00 ± 0.00 µmol
same,DCE ± s.d.,[1]; 0 days,0.00 ± 0.00 µmol
same,Ethene ± s.d.,[1]; 0 days,0.00 ± 0.00 µmol
same,PCE ± s.d.,[1]; 0 days,19.54 ± 0.00 µmol
same,TCE ± s.d.,[1]; 0 days,0.00 ± 0.00 µmol
same,VC ± s.d.,[1]; 0 days,0.00 ± 0.00 µmol
same,Cl^− Rate ± s.d.,[1]; 14 days,2.58 ± 0.17 µmol
same,Cl^− ± s.d.,[1]; 14 days,36.18 ± 2.43 µmol
same,DCE ± s.d.,[1]; 14 days,0.42 ± 0.03 µmol
same,Ethene ± s.d.,[1]; 14 days,0.00 ± 0.00 µmol
same,PCE ± s.d.,[1]; 14 days,8.45 ± 0.55 µmol
same,TCE ± s.d.,[1]; 14 days,2.00 ± 0.04 µmol
same,VC ± s.d.,[1]; 14 days,1.33 ± 0.41 µmol
same,Cl^− Rate ± s.d.,[1]; 35 days,1.33 ± 0.15 µmol
same,Cl^− ± s.d.,[1]; 35 days,46.47 ± 5.25 µmol
same,DCE ± s.d.,[1]; 35 days,1.60 ± 0.82 µmol
same,Ethene ± s.d.,[1]; 35 days,0.33 ± 0.29 µmol
same,PCE ± s.d.,[1]; 35 days,4.08 ± 0.81 µmol
same,TCE ± s.d.,[1]; 35 days,2.77 ± 0.47 µmol
same,VC ± s.d.,[1]; 35 days,3.86 ± 2.11 µmol
same,Cl^− Rate ± s.d.,[1]; 53 days,1.06 ± 0.06 µmol
same,Cl^− ± s.d.,[1]; 53 days,56.17 ± 3.17 µmol
same,DCE ± s.d.,[1]; 53 days,5.31 ± 1.00 µmol
same,Ethene ± s.d.,[1]; 53 days,0.78 ± 0.79 µmol
same,PCE ± s.d.,[1]; 53 days,0.33 ± 0.27 µmol
same,TCE ± s.d.,[1]; 53 days,0.52 ± 0.47 µmol
same,VC ± s.d.,[1]; 53 days,8.52 ± 6.24 µmol
same,Relative Rate,"[1]; bottle 1, 14 days",0.92
same,Relative Rate,"[1]; bottle 1, 35 days",1.11
same,Relative Rate,"[1]; bottle 1, 53 days",0.96
same,Relative Rate,"[1]; bottle 2, 14 days",1.02
same,Relative Rate,"[1]; bottle 2, 35 days",1.00
same,Relative Rate,"[1]; bottle 2, 53 days",1.06
same,Relative Rate,"[1]; bottle 3, 14 days",1.05
same,Relative Rate,"[1]; bottle 3, 35 days",0.89
same,Relative Rate,"[1]; bottle 3, 53 days",0.98
same,efficiency of electron donor utilization for dechlorination (in words),[2]; Set G,statistically more efficient an electron donor as compared to PS1 and molasses
same,Estimated % Efficiency,[2]; e^- used dechlorination / e^- used donor,5.392%
same,Relative Efficiency,[2]; relative to Lactate Control = 100%,100%
